Results on 104 compounds are retold here after PubChem BioAssay AID1996.

In brackets after ≈: the same amount, converted by molar mass.

The term kinetic solubility denotes the concentration staying in solution when a stock, usually in DMSO, is diluted into the medium.

The conditions of this series: buffer; pH 7.4; 200.0 µM.
As for `COc1ccc(C(C)=O)cc1COC(=O)c1cccnc1Cl`, the solubility (kinetic) amounted to 0.0057 mg/mL (≈ 17.8 µM).
As for `COC(=O)c1cc(=O)n2c(sc3ccccc32)c1C#N`, the figure is 0.0013 mg/mL (≈ 4.57 µM); as for `O=C(NC1CCC(O)CC1)c1ccc(-c2ccc(Cl)cc2)o1` (centres undefined), 0.0187 mg/mL (≈ 58.5 µM); as for `COc1ccc(C2=NOC(C(=O)Nc3cc(C)on3)C2)cc1OC` (centres undefined), above 0.0497 mg/mL.
As for `CC(NC(=O)CN1CCCC1)c1ccccc1` (centres undefined), the figure is above 0.0348 mg/mL.
With `COc1ccc(NC(=O)c2ccccc2Oc2ccccc2)cc1`, the solubility (kinetic) is below 0.0007 mg/mL.
The value for `COc1cccc(CNCc2ccccc2OC)c1.O=C(O)C(=O)O` was 0.0289 mg/mL; that for `O=C(Cc1cc2ccccc2o1)NCc1ccc(F)cc1` was 0.005 mg/mL (≈ 17.6 µM).
`CCc1ccccc1NC(=O)NCc1cccnc1` came in with a solubility (kinetic) above 0.0383 mg/mL.
In the case of `Cn1c(SCC(=O)NC2CCCC2)nnc1-c1ccco1`, the kinetic solubility was above 0.046 mg/mL.
As for `Cc1ccc(S(=O)(=O)N2CCN(C(C)C(=O)NCC(C)c3ccccc3)CC2)cc1` (centres undefined), the figure is 0.0582 mg/mL (≈ 135 µM); as for `O=C(O)CN1C(=O)c2ccc(C(=O)c3ccccc3)cc2C1=O`, 0.0458 mg/mL (≈ 148 µM).
As for `O=C1NC(=O)/C(=C/c2ccc(-c3cc(C(=O)O)ccc3Cl)o2)S1`, the figure is above 0.0525 mg/mL.
Compound `Cc1cc(C)c2c(=O)[nH]c(SCC(=O)N3CCOCC3)nc2n1` showed a solubility (kinetic) above 0.0502 mg/mL.
The value for `Cn1c(N)c(C(=O)COC(=O)/C=C/c2ccc(Cl)cc2Cl)c(=O)n(C)c1=O` was 0.0029 mg/mL (≈ 7.03 µM); that for `O=C(Nc1nnc(C2CC2)s1)C1COc2ccccc2O1` (centres undefined) was above 0.0455 mg/mL.
As for `Cc1cccc(CC(=O)NCC2CCCCC2)c1`, the figure is above 0.0368 mg/mL.
As for `CC(C)CC(=O)N1CCN(Cc2ccc(Cl)cc2)CC1`, the kinetic solubility came to 0.0284 mg/mL (≈ 96.3 µM).
The value for `CCCC(CCC)C(=O)OC1C[C@H]2CC[C@@H](C1)[N+]2(C)C.[Br-]` (some centres undefined) was above 0.0544 mg/mL; that for `COc1ccc(N2C(=O)C(CN3CCCCC3)C2c2ccccc2)cc1` (centres undefined) was 0.0517 mg/mL (≈ 148 µM).
As for `CCOC(=O)c1ccc(NC(=O)c2ccco2)cc1`, the figure is above 0.0389 mg/mL; as for `Cc1cc(C)c2ccc3c(C)c(C)n(C)c3c2n1`, below 0.0003 mg/mL; as for `N#CC(c1cccnc1)N1CCOCC1` (centres undefined), above 0.0305 mg/mL.
As for `O=C(Nc1cccnc1)c1ccccc1-c1ccccc1`, the figure is above 0.0411 mg/mL; as for `OCCC1CN(CC#Cc2ccccc2)CCN1C1CCCC1` (centres undefined), above 0.0469 mg/mL.
`O=C(c1cc(-c2ccc(O)cc2)on1)N1CCCCCC1` registered a kinetic solubility above 0.0429 mg/mL.
As for `CCOc1ccc(N=Cc2c(O)n(Cc3ccccc3)c(=S)[nH]c2=O)cc1`, the figure is 0.0005 mg/mL (≈ 1.31 µM).
With `O=C(O)CCc1ccc(-c2ccccc2)n1-c1cccc(C(=O)O)c1`, the kinetic solubility is above 0.0503 mg/mL.
As to `N#CC1CN(Cc2ccccc2)CN(Cc2ccccc2)C1`, the solubility (kinetic) was found to be 0.0329 mg/mL (≈ 113 µM).
The value for `COc1ccc(NC(=O)CN2C(=O)NC(C)(c3ccc4c(c3)OCCO4)C2=O)cc1S(N)(=O)=O` (centres undefined) was above 0.0736 mg/mL.
The value for `Cc1cc(NC(=O)C(Cl)(Cl)Cl)no1` was 0.0357 mg/mL (≈ 147 µM); that for `COc1ccc(-n2nc3c(c2NC(C)=O)CS(=O)(=O)C3)cc1` was above 0.0482 mg/mL; that for `COc1ccc(/C=C/C(=O)NC(=S)Nc2ccccn2)cc1` was 0.0018 mg/mL (≈ 5.74 µM).
As for `COCCNC(=O)Cn1cc(C=C2C(=O)NC(=O)NC2=O)c2ccccc21`, the figure is 0.0063 mg/mL (≈ 17 µM).
`O=C(NC1CCCCC1)C1COc2ccccc2O1` (centres undefined) gave a kinetic solubility above 0.0392 mg/mL.
The value for `Cc1ccc(CNC(=O)c2cc(=O)c3cc(C)ccc3o2)cc1` was below 0.0007 mg/mL; that for `CC(=O)N(CCC(c1ccco1)C(C)C)Cc1ccc(OC(C)C)cc1` (centres undefined) was 0.0195 mg/mL (≈ 54.5 µM); that for `COc1ccc(Nc2nc(N)c([N+](=O)[O-])c(N3CCOCC3)n2)cc1` was 0.0212 mg/mL (≈ 61.2 µM).
As for `COc1cc(/C=N/NC(=O)c2ccccc2)ccc1O`, the figure is above 0.0405 mg/mL; as for `NC(=O)C(c1ccccc1)c1ccc(C(=O)c2ccccc2)cc1` (centres undefined), below 0.0007 mg/mL; as for `N/C(=N\c1nc2ccccc2o1)NC(=O)c1ccc([N+](=O)[O-])cc1`, below 0.0001 mg/mL.
The value for `COC(=O)C(Cc1cccc(C)n1)(c1ccccc1)c1ccccc1` was 0.0142 mg/mL (≈ 42.8 µM); that for `Cc1cc(Cl)ccc1OC(C)C(=O)NCCCn1ccnc1` (centres undefined) was above 0.0483 mg/mL; that for `Cc1cccc2c(N=O)c(O)n(CCc3ccccc3)c12` was 0.0004 mg/mL (≈ 1.43 µM).
On to `O=C(Nc1ccc2ccccc2c1)c1ccccc1O`, for which the solubility (kinetic) amounted to 0.0007 mg/mL (≈ 2.66 µM).
Take `Cc1ccc(C(C)C)cc1OCC(=O)Nc1ccccc1N1CCCC1`: the kinetic solubility is below 0.0004 mg/mL.
In turn, `CCN(Cc1ccncc1)C(=O)c1ccc(Br)o1` came in with a solubility (kinetic) above 0.0464 mg/mL.
The value for `COCCNC(=S)c1ccc(Br)cc1` was 0.0345 mg/mL (≈ 126 µM); that for `CC1=CC(C)(C)Nc2ccc(OC(=O)CN3C(=O)c4cccc5cccc(c45)C3=O)cc21` was 0.0563 mg/mL (≈ 132 µM); that for `O=C(Nc1ccc2c(c1)CCC2)Nc1ccccc1F` was 0.0016 mg/mL (≈ 5.92 µM).
`CCOc1ccccc1NC(=O)c1cccc2ccccc12`: the solubility (kinetic) came out at 0.0077 mg/mL (≈ 26.4 µM).
The value for `OC(CCN1CCCCC1)c1ccc(-c2ccccc2)cc1` (centres undefined) was above 0.0443 mg/mL; that for `Cc1ccc(Nc2nc(-c3cccnc3)cs2)cc1Cl` was 0.0003 mg/mL (≈ 0.994 µM).
As for `Cc1nc(/C(N)=N/OC(=O)c2c(-c3ccccc3Cl)noc2C)cs1`, the figure is 0.0482 mg/mL (≈ 128 µM).
`COc1ccc(Cl)cc1NC(=O)Cn1c(C)csc1=O`: the solubility (kinetic) was 0.0183 mg/mL (≈ 58.5 µM).
The value for `N#Cc1ccc(-c2cccnc2)nc1SCC(=O)c1ccccc1` was 0.0028 mg/mL (≈ 8.45 µM).
As for `CCC(=O)c1cn(CCOc2ccccc2OC)c2ccccc12`, the figure is 0.0022 mg/mL (≈ 6.8 µM); as for `CC(C)(C)c1nc(SCC(=O)NC2CCCC2)c2ccccc2n1`, 0.0006 mg/mL (≈ 1.75 µM).
The value for `Cc1cc(C(=O)O/N=C(\N)c2ccc(C(C)(C)C)cc2)no1` was 0.0029 mg/mL (≈ 9.62 µM); that for `COc1ccccc1C1CCN(c2ccc(CO)cc2[N+](=O)[O-])CC1` was 0.0078 mg/mL (≈ 22.8 µM).
As for `CCNC1CCS(=O)(=O)C1` (centres undefined), the kinetic solubility was above 0.0245 mg/mL.
The value for `CC1(c2ccccc2)NC(=O)N(CC(=O)Nc2ccc(N3CCOCC3)cc2)C1=O` (centres undefined) was 0.0276 mg/mL (≈ 67.6 µM).
As for `O=C1/C(=C\c2ccsc2)NC(=S)N1c1ccccc1`, the figure is 0.0045 mg/mL (≈ 15.7 µM); as for `COc1ccc(CCC(=O)NCCOc2ccc(C)cc2)cc1`, 0.024 mg/mL (≈ 76.6 µM).
As for `COc1ccc(CCNC(=O)COC(=O)c2ncc(Cl)c(Cl)c2Cl)cc1OC`, the figure is above 0.0672 mg/mL; as for `CCCOc1cccc(C(=O)Nc2ccc(CN3CCOCC3)cc2)c1`, 0.0472 mg/mL (≈ 133 µM); as for `COc1nc(Nc2cccc(F)c2)nc(OC)n1`, 0.0128 mg/mL (≈ 51.2 µM).
On to `CCC(C)c1ccccc1N=Cc1ccc2c(c1)OCO2` (centres undefined), for which the solubility (kinetic) was 0.0071 mg/mL (≈ 25.2 µM).
As for `CCOC(=O)c1c(C)n(C)c2cc([N+](=O)[O-])c(O)c([N+](=O)[O-])c12`, the figure is 0.0449 mg/mL (≈ 139 µM).
As for `Cc1c(C(=O)c2ccccc2)c(=O)n(C)c(=O)n1C`, the figure is above 0.0387 mg/mL; as for `CCN(Cc1ccncc1)C(=O)c1cccc(S(=O)(=O)N2CCCCC2)c1`, above 0.0581 mg/mL; as for `COc1ccccc1OCC(=O)NCCCN1CCOCC1`, 0.0361 mg/mL (≈ 117 µM).
The value for `O=C(NCc1ccc(-n2cccc2)cc1)c1cccc(F)c1` was 0.0017 mg/mL (≈ 5.78 µM); that for `COc1ccc(CCNc2ccc([N+](=O)[O-])cn2)cc1` was 0.0071 mg/mL (≈ 26 µM).
`COc1ccc2ccccc2c1CNCCc1ccccc1.Cl` showed a kinetic solubility of 0.042 mg/mL.
As to `Cc1ccc(Cl)cc1NS(=O)(=O)c1cn(C)nc1C`, the kinetic solubility is above 0.045 mg/mL.
The compound `COc1ccc(N2CCN(CCc3ccncc3)CC2)cc1` had a kinetic solubility above 0.0446 mg/mL.
As for `COc1cccc(C(O)c2nc3ccccc3n2C(C)C)c1OC` (centres undefined), the figure is above 0.049 mg/mL.
The value for `Clc1ccccc1Nc1nc2ccccc2o1` was 0.0023 mg/mL (≈ 9.4 µM); that for `CC(C)CN1CCN(Cc2cccn2-c2cccnc2)CC1CCO` (centres undefined) was 0.0288 mg/mL (≈ 84.1 µM).
In the case of `COc1cc(CNCCNC(=O)c2cccs2)cc(OC)c1OC`, the solubility (kinetic) stood at 0.0441 mg/mL (≈ 126 µM).
As for `O=C(NCCCN1CCCC1=O)c1ccc(Cl)c(Cl)c1`, the figure is 0.0459 mg/mL (≈ 146 µM); as for `COc1ccccc1N1CCN(C2CCC(C)CC2)CC1` (centres undefined), 0.0317 mg/mL (≈ 110 µM); as for `COc1cccc(NC(=S)N2CCC(c3ccc(C)cc3)C2)c1` (centres undefined), 0.0069 mg/mL (≈ 21.1 µM).
The value for `CCCC(=O)N/C(N)=N/c1nc2ccccc2o1` was 0.0119 mg/mL (≈ 48.3 µM).
As for `CCc1ccc(S(=O)(=O)N2CCN(C(=O)c3cccnc3)CC2)cc1`, the figure is above 0.0539 mg/mL; as for `CC(=O)c1c(C)[nH]c(C(=O)Nc2nccs2)c1C`, 0.0208 mg/mL (≈ 79 µM); as for `COc1cc(C)c(S(=O)(=O)NCc2cccnc2)cc1C`, above 0.046 mg/mL.
`Cc1ccc(NC(=S)NCc2ccc3c(c2)cc(C)n3C)c(C)c1` showed a solubility (kinetic) of 0.0006 mg/mL (≈ 1.78 µM).
The value for `O=C(O)Cc1c[nH]c2ccccc12` was above 0.0263 mg/mL; that for `COc1ccc(CNC(=O)c2cc3c(=O)[nH]c4ccccc4c3n2C)cc1` was below 0.0003 mg/mL.
As for `Cc1ccc(C(=O)NCCNC(=O)c2cnccn2)cc1`, the figure is 0.0349 mg/mL (≈ 123 µM); as for `O=C(COc1ccccc1Cl)Nc1ccc2oc(=O)ccc2c1`, below 0.0007 mg/mL.
`CC(c1ccccc1)N1CC(C(=O)O)CC1=O` (centres undefined) yielded a solubility (kinetic) above 0.035 mg/mL.
The value for `COc1ccc2[nH]c(=O)c(CN(C(=O)c3cccnc3)c3cccc(C)c3)cc2c1` was 0.0039 mg/mL (≈ 9.76 µM); that for `CN(C)S(=O)(=O)c1cccc(NC(=O)C2CCN(S(=O)(=O)c3cccs3)CC2)c1` was 0.0234 mg/mL (≈ 51.1 µM); that for `Cc1cc(OCC(O)CNC(C)c2ccccc2)ccc1C(C)C.Cl` (centres undefined) was 0.0453 mg/mL.
`COc1cc(OC)nc(Oc2cc(C=O)ccc2OC)n1` yielded a kinetic solubility above 0.0435 mg/mL.
The value for `CC1(CCCN2C(=O)c3ccccc3C2=O)OCCO1` was above 0.0413 mg/mL; that for `Cc1ccc(Cl)cc1N1C(=O)CC(C)(C)CC1=O` was 0.0157 mg/mL (≈ 59.1 µM); that for `Cc1c(Cl)cccc1NC(=S)NCc1ccc(F)cc1` was 0.0037 mg/mL (≈ 12 µM).
As for `O=C(Oc1ccccc1)N1CCCC1`, the figure is 0.0248 mg/mL (≈ 130 µM); as for `CCOc1cc(/C=C2/NC(=O)N(CC(=O)OC)C2=O)ccc1O`, 0.0148 mg/mL (≈ 46.2 µM); as for `O=C(CCCN1C(=O)c2ccccc2C1=O)Nc1ccccc1`, above 0.0463 mg/mL.
